In PubChem BioAssay (NCI):
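Each compound was tested at five concentrations against cells in 96-well plates for 48 hours. TGI denotes the concentration required for complete inhibition of growth.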

Key:
Test in all cases: inhibition of tumour cell growth, NCI panel, 48 h
786-0 renal = test system: 786-0 renal
A498 renal = test system: A498 renal
A549 NSCLC = test system: A549 NSCLC
ACHN renal = test system: ACHN renal
CAKI-1 renal = test system: CAKI-1 renal
CCRF-CEM leukemia = test system: CCRF-CEM leukemia
COLO 205 colon = test system: COLO 205 colon
DLD-1 colon = test system: DLD-1 colon
DMS 114 small cell lung = test system: DMS 114 small cell lung
DMS 273 small cell lung = test system: DMS 273 small cell lung
EKVX NSCLC = test system: EKVX NSCLC
HCC-2998 colon = test system: HCC-2998 colon
HCT-116 colon = test system: HCT-116 colon
HCT-15 colon = test system: HCT-15 colon
HL-60(TB) leukemia = test system: HL-60(TB) leukemia
HOP-62 NSCLC = test system: HOP-62 NSCLC
HOP-92 NSCLC = test system: HOP-92 NSCLC
HT29 colon = test system: HT29 colon
IGROV1 ovarian = test system: IGROV1 ovarian
K-562 leukemia = test system: K-562 leukemia
KM12 colon = test system: KM12 colon
KM20L2 colon = test system: KM20L2 colon
LOX IMVI melanoma = test system: LOX IMVI melanoma
LXFL 529 NSCLC = test system: LXFL 529 NSCLC
M14 melanoma = test system: M14 melanoma
M19-MEL melanoma = test system: M19-MEL melanoma
MALME-3M melanoma = test system: MALME-3M melanoma
MOLT-4 leukemia = test system: MOLT-4 leukemia
NCI-H226 lung = test system: NCI-H226 lung
NCI-H23 lung = test system: NCI-H23 lung
NCI-H460 lung = test system: NCI-H460 lung
NCI-H522 lung = test system: NCI-H522 lung
OVCAR-3 ovarian = test system: OVCAR-3 ovarian
OVCAR-4 ovarian = test system: OVCAR-4 ovarian
OVCAR-5 ovarian = test system: OVCAR-5 ovarian
OVCAR-8 ovarian = test system: OVCAR-8 ovarian
RPMI-8226 leukemia = test system: RPMI-8226 leukemia
RXF 393 renal = test system: RXF 393 renal
RXF-631 renal = test system: RXF-631 renal
SF-268 CNS = test system: SF-268 CNS
SF-295 CNS = test system: SF-295 CNS
SF-539 CNS = test system: SF-539 CNS
SK-MEL-2 melanoma = test system: SK-MEL-2 melanoma
SK-MEL-28 melanoma = test system: SK-MEL-28 melanoma
SK-OV-3 ovarian = test system: SK-OV-3 ovarian
SN12C renal = test system: SN12C renal
SNB-19 CNS = test system: SNB-19 CNS
SNB-75 CNS = test system: SNB-75 CNS
SNB-78 CNS = test system: SNB-78 CNS
SW-620 colon = test system: SW-620 colon
TK-10 renal = test system: TK-10 renal
U251 CNS = test system: U251 CNS
UACC-257 melanoma = test system: UACC-257 melanoma
UACC-62 melanoma = test system: UACC-62 melanoma
UO-31 renal = test system: UO-31 renal
SK-MEL-5 melanoma = test system: SK-MEL-5 melanoma
SR leukemia = test system: SR leukemia
XF 498 CNS = test system: XF 498 CNS
BT-549 breast = test system: BT-549 breast
DU-145 prostate = test system: DU-145 prostate
HS 578T breast = test system: HS 578T breast
MCF7 breast = test system: MCF7 breast
MDA-MB-231 breast = test system: MDA-MB-231 breast
MDA-MB-435 = test system: MDA-MB-435
MDA-N = test system: MDA-N
NCI/ADR-RES ovarian = test system: NCI/ADR-RES ovarian
PC-3 prostate = test system: PC-3 prostate
T-47D breast = test system: T-47D breast

O=C1OC(O)C(Oc2ccc(Cl)cc2)=C1Cl (stereo unspecified)
TGI (786-0 renal): > 100 µM | TGI (A498 renal): > 100 µM | TGI (A549 NSCLC): > 100 µM | TGI (ACHN renal): > 100 µM | TGI (CAKI-1 renal): > 100 µM | TGI (CCRF-CEM leukemia): > 100 µM | TGI (COLO 205 colon): > 100 µM | TGI (DLD-1 colon): > 100 µM | TGI (DMS 114 small cell lung): > 100 µM | TGI (DMS 273 small cell lung): > 100 µM | TGI (EKVX NSCLC): > 100 µM | TGI (HCC-2998 colon): > 100 µM | TGI (HCT-116 colon): > 100 µM | TGI (HCT-15 colon): > 100 µM | TGI (HL-60(TB) leukemia): > 100 µM | TGI (HOP-62 NSCLC): > 100 µM | TGI (HOP-92 NSCLC): > 100 µM | TGI (HT29 colon): > 100 µM | TGI (IGROV1 ovarian): > 100 µM | TGI (K-562 leukemia): > 100 µM | TGI (KM12 colon): > 100 µM | TGI (KM20L2 colon): > 100 µM | TGI (LOX IMVI melanoma): > 100 µM | TGI (LXFL 529 NSCLC): > 100 µM | TGI (M14 melanoma): > 100 µM | TGI (M19-MEL melanoma): > 100 µM | TGI (MALME-3M melanoma): > 100 µM | TGI (MOLT-4 leukemia): > 100 µM | TGI (NCI-H226 lung): > 100 µM | TGI (NCI-H23 lung): > 100 µM | TGI (NCI-H460 lung): > 100 µM | TGI (NCI-H522 lung): > 100 µM | TGI (OVCAR-3 ovarian): > 100 µM | TGI (OVCAR-4 ovarian): > 100 µM | TGI (OVCAR-5 ovarian): > 100 µM | TGI (OVCAR-8 ovarian): > 100 µM | TGI (RPMI-8226 leukemia): > 100 µM | TGI (RXF 393 renal): > 100 µM | TGI (RXF-631 renal): > 100 µM | TGI (SF-268 CNS): > 100 µM | TGI (SF-295 CNS): > 100000 nM | TGI (SF-539 CNS): > 100 µM | TGI (SK-MEL-2 melanoma): > 100 µM | TGI (SK-MEL-28 melanoma): > 100 µM | TGI (SK-OV-3 ovarian): > 100 µM | TGI (SN12C renal): > 100 µM | TGI (SNB-19 CNS): > 100 µM | TGI (SNB-75 CNS): > 100 µM | TGI (SNB-78 CNS): > 100 µM | TGI (SW-620 colon): > 100 µM | TGI (TK-10 renal): > 100 µM | TGI (U251 CNS): > 100 µM | TGI (UACC-257 melanoma): > 100 µM | TGI (UACC-62 melanoma): > 100 µM | TGI (UO-31 renal): > 100 µM

CC(C)OP(=O)(OC(C)C)C(=Nc1ccccc1)NNc1ccc([N+](=O)[O-])cc1
TGI (786-0 renal): 83.3 µM | TGI (A549 NSCLC): 88.5 µM | TGI (ACHN renal): 92.5 µM | TGI (CAKI-1 renal): > 100 µM | TGI (CCRF-CEM leukemia): 56.9 µM | TGI (COLO 205 colon): 51.5 µM | TGI (DLD-1 colon): > 100 µM | TGI (DMS 114 small cell lung): 69.5 µM | TGI (DMS 273 small cell lung): 59 µM | TGI (EKVX NSCLC): > 100 µM | TGI (HCC-2998 colon): > 100 µM | TGI (HCT-116 colon): 31.2 µM | TGI (HCT-15 colon): > 100 µM | TGI (HL-60(TB) leukemia): 46.2 µM | TGI (HOP-62 NSCLC): > 100 µM | TGI (HOP-92 NSCLC): 40.2 µM | TGI (K-562 leukemia): > 100 µM | TGI (KM12 colon): 43.6 µM | TGI (KM20L2 colon): > 100 µM | TGI (LOX IMVI melanoma): > 100 µM | TGI (LXFL 529 NSCLC): > 100 µM | TGI (M14 melanoma): 41.4 µM | TGI (M19-MEL melanoma): > 100 µM | TGI (MALME-3M melanoma): 50 µM | TGI (MOLT-4 leukemia): 41.9 µM | TGI (NCI-H226 lung): 84.9 µM | TGI (NCI-H23 lung): > 100 µM | TGI (NCI-H460 lung): > 100 µM | TGI (NCI-H522 lung): 58 µM | TGI (OVCAR-3 ovarian): > 100 µM | TGI (OVCAR-4 ovarian): > 100 µM | TGI (OVCAR-5 ovarian): > 100 µM | TGI (OVCAR-8 ovarian): > 100 µM | TGI (RPMI-8226 leukemia): 70.4 µM | TGI (SF-268 CNS): > 100 µM | TGI (SF-539 CNS): > 100 µM | TGI (SK-MEL-2 melanoma): > 100 µM | TGI (SK-MEL-28 melanoma): 89.5 µM | TGI (SK-MEL-5 melanoma): 27.1 µM | TGI (SN12C renal): > 100 µM | TGI (SNB-19 CNS): > 100 µM | TGI (SNB-75 CNS): > 100 µM | TGI (SNB-78 CNS): 43.1 µM | TGI (SR leukemia): 43.4 µM | TGI (SW-620 colon): > 100 µM | TGI (TK-10 renal): 46.2 µM | TGI (U251 CNS): 52.5 µM | TGI (UACC-257 melanoma): > 100 µM | TGI (UACC-62 melanoma): 29.1 µM | TGI (UO-31 renal): > 100 µM | TGI (XF 498 CNS): 61 µM

COc1ccc(C(c2ccccc2)C(C)C(=O)c2c(C)cc(C)cc2C)cc1 (stereo unspecified)
TGI (HT29 colon): > 100 µM | TGI (K-562 leukemia): > 100 µM | TGI (M19-MEL melanoma): > 100 µM | TGI (MALME-3M melanoma): > 100 µM | TGI (NCI-H522 lung): > 100 µM | TGI (RPMI-8226 leukemia): > 100 µM

O=C1C=C(NCCc2cc(Br)c(O)c(Br)c2)C(=O)c2ncccc21
TGI (786-0 renal): 13.6 µM | TGI (A498 renal): 6.78 µM | TGI (A549 NSCLC): 4.79 µM | TGI (ACHN renal): 22 µM | TGI (BT-549 breast): 5.07 µM | TGI (CAKI-1 renal): 17.5 µM | TGI (CCRF-CEM leukemia): 31.4 µM | TGI (COLO 205 colon): 3.25 µM | TGI (DU-145 prostate): 2990 nM | TGI (EKVX NSCLC): 22 µM | TGI (HCC-2998 colon): 18.5 µM | TGI (HCT-116 colon): 11.8 µM | TGI (HCT-15 colon): 18.2 µM | TGI (HL-60(TB) leukemia): 16.1 µM | TGI (HOP-62 NSCLC): 3.59 µM | TGI (HOP-92 NSCLC): 25.6 µM | TGI (HS 578T breast): 8.77 µM | TGI (HT29 colon): 7.36 µM | TGI (IGROV1 ovarian): 6.31 µM | TGI (K-562 leukemia): 10 µM | TGI (KM12 colon): 23.4 µM | TGI (LOX IMVI melanoma): 4.97 µM | TGI (M14 melanoma): 2.7 µM | TGI (MALME-3M melanoma): 2.49 µM | TGI (MCF7 breast): 5.29 µM | TGI (MDA-MB-231 breast): 20.3 µM | TGI (MDA-MB-435): 723 nM | TGI (MDA-N): 1230 nM | TGI (MOLT-4 leukemia): 21.9 µM | TGI (NCI-H226 lung): 3.72 µM | TGI (NCI-H23 lung): 1.66 µM | TGI (NCI-H460 lung): 4.8 µM | TGI (NCI-H522 lung): 6.1 µM | TGI (NCI/ADR-RES ovarian): 27.5 µM | TGI (OVCAR-3 ovarian): 6.88 µM | TGI (OVCAR-4 ovarian): 11.3 µM | TGI (OVCAR-5 ovarian): 3.95 µM | TGI (OVCAR-8 ovarian): 27.3 µM | TGI (PC-3 prostate): 27.1 µM | TGI (RPMI-8226 leukemia): 18.3 µM | TGI (RXF 393 renal): 13.4 µM | TGI (SF-268 CNS): 21.9 µM | TGI (SF-295 CNS): 2790 nM | TGI (SF-539 CNS): 2.52 µM | TGI (SK-MEL-2 melanoma): 4.1 µM | TGI (SK-MEL-28 melanoma): 3.5 µM | TGI (SK-MEL-5 melanoma): 2.57 µM | TGI (SK-OV-3 ovarian): 33.4 µM | TGI (SN12C renal): 2.95 µM | TGI (SNB-19 CNS): 8.77 µM | TGI (SNB-75 CNS): 3.13 µM | TGI (SR leukemia): 7.31 µM | TGI (SW-620 colon): 8.6 µM | TGI (T-47D breast): 43.4 µM | TGI (TK-10 renal): 13.8 µM | TGI (U251 CNS): 20 µM | TGI (UACC-257 melanoma): 2.92 µM | TGI (UACC-62 melanoma): 2.93 µM | TGI (UO-31 renal): 20.2 µM
